Test: Water-solubility of dimpropyridaz
Type: physicochemical
Settings: printed as at 20° C. ... at 25° C.
Description: Dimpropyridaz is a pesticide that has a water-solubility at 20° C. of approximately 4-5 wt % at 25° C. The water-solubility of dimpropyridaz is comparably high and so Ostwald-ripening represents a crucial issue for Dimpropyridaz suspension concentrates.

CCN(C(=O)c1cnn(C(C)C(C)C)c1C)c1ccnnc1 (racemic) [Dimpropyridaz, 1-[1,2-dimethylpropyl]-N-ethyl-5-methyl-N-pyridazin-4-yl-1H-pyrazole-4-carboxamide]
water-solubility: 4-5 wt %
